Results taken from US20200000825A1, “METHODS AND COMPOSITIONS FOR TREATING AND PREVENTING VIRAL INFECTIONS” (ENTERIN LABORATORIES, INC., priority 2009, published 2020).
Where two headings read alike, the source gives them in different places.

Key:
Yellow Fever [1] = type: in vivo, Syrian hamsters; conditions: squalamine 15 mg/kg/d s.c. qd, -24 h to 6 dpi
Yellow Fever [2] = type: in vivo, Syrian hamsters
[3] = test system: Eastern Equine Encephalitis Virus; type: in vivo
Dengue virus = assay: Dengue infection of HMEC-1 cells, immunohistochemical detection of viral E protein (Example 11); type: cell-based, human
Protocol: Cells were grown on uncoated glass cover-slips following a published protocol (Zamudio-Meza, Castillo-Alvarez et al. 2009). The cells were pretreated with squalamine for 2 hr at 37° C. prior to viral exposure; virus (multiplicity of infection of 3) remained in contact with cells for 30 minutes at 4° C., followed by 90 minutes at 37° C. The medium was then replaced with fresh medium lacking virus and squalamine and maintained at 37° C. for 48 hrs. Cells were fixed and processed for immunohistochemical detection of viral E protein. Viral E protein expression was used to monitor the early stages of infection.

human Hepatitis B virus = assay: Hepatitis B virus replication in primary human hepatocytes, PCR (Example 12); type: cell-based
Protocol: Primary human hepatocytes were established in a 96 well microtiter plate. Squalamine was then added at concentrations of 2, 6 or 20 μg/ml followed by an inoculum of Hep B virus, and then in culture for 16 hours, after which fresh medium was introduced, and the cells maintained in culture for 14 days. In a second experiment, squalamine at 6 or 20 μg/ml was added to the cells at 24 hours post inoculation for a 16 hour exposure, followed by removal of medium, replacement with fresh medium, and continued culture for 14 days. Viral growth was measured by PCR using viral specific primers and normalized to the total RNA extracted from each corresponding well.

[4] = test system: human Hepatitis Delta virus; assay: Hepatitis Delta virus replication in primary human hepatocytes, PCR (Example 13); type: cell-based
Protocol: Primary human hepatocytes were established in a 96 well microtiter plate. Squalamine was then added at concentrations of 20 or 60 μg/ml followed by an inoculum of Hep D virus, and then in culture for 3 hours, after which fresh medium was introduced, and the cells maintained in culture for 7 days. Viral growth was measured by PCR using viral specific primers and normalized to the total RNA extracted from each corresponding well.

[5] = test system: human immunodeficiency virus (HIV)
[6] = test system: Human umbilical endothelial cells; assay: Kinetics of uptake of 3H-labelled aminosterol into endothelial cells; conditions: for Uptake into endothelial cells: 1 μg/ml 3H-aminosterol
[7] = 20 μg/ml, added during initial stages of infection

**Q.** For `CC(C)[C@@H](CC[C@@H](C)[C@H]1CC[C@H]2[C@@H]3[C@H](O)C[C@H]4C[C@@H](NCCCNCCCCN)CC[C@]4(C)[C@H]3CC[C@]12C)OS(=O)(=O)O` [Squalamine, squalamine], which Survival (Yellow Fever [1]) is on record?
**A.** 70%

**Q.** And the “Animals cured (survival through day 21)” value (Yellow Fever [2]; squalamine 15 mg/kg/day s.c. from 1 dpi to 8 dpi)?
**A.** 60%

**Q.** And the “Animals cured (survival through day 21)” value (Yellow Fever [2]; squalamine 30 mg/kg/day s.c. from 1 dpi to 8 dpi)?
**A.** 60%

**Q.** What about the “Animals cured (survival through day 21)” value (Yellow Fever [2]; squalamine 30 mg/kg/day s.c. from 2 dpi to 9 dpi) of the same compound?
**A.** 40%

**Q.** What about the Efficacy in mice [3] of the same compound?
**A.** ineffective

**Q.** What about the “Inhibition of viral infection” value (Dengue virus; 46 ug/ml) of the same compound?
**A.** about 80%

**Q.** And the “Inhibition of viral infection” value (Dengue virus; 60 μg/ml and higher)?
**A.** ~100%

**Q.** And the “Inhibition of viral infection” value (Dengue virus; 62 ug/ml)?
**A.** 100%

**Q.** What about the “Cell viability (morphology, phase contrast)” value (Dengue virus; HMEC-1 cells at the effective squalamine concentrations) of the same compound?
**A.** not diminished

**Q.** And the “Inhibition of viral infection” value (Dengue virus; about 40 μg/ml)?
**A.** 80%

**Q.** What about the “Inhibition of viral infection” value (Dengue virus; concentrations above 40 ug/ml) of the same compound?
**A.** almost completely inhibited

**Q.** And the “Inhibition of viral production” value (human Hepatitis B virus; 2 μg/ml, added at the outset of infection)?
**A.** 14%

**Q.** What about the “Inhibition of viral production” value (human Hepatitis B virus; 6 μg/ml, added at 24 hours) of the same compound?
**A.** 30%

**Q.** What about the “Inhibition of viral production” value (human Hepatitis B virus; 6 μg/ml, added at the onset of infection) of the same compound?
**A.** 54%

**Q.** And the “Inhibition of viral production” value (human Hepatitis B virus; 20 μg/ml, added at 24 hours)?
**A.** 64%

**Q.** What about the “Inhibition of viral production” value (human Hepatitis B virus; [7]) of the same compound?
**A.** 83%

**Q.** And the “Inhibition of viral production” value [4, 7]?
**A.** 90%

**Q.** What about the Cytotoxicity in vitro ([4]; 60 μg/ml, primary human hepatocytes) of the same compound?
**A.** cytotoxic

**Q.** And the “Inhibition of HIV infection” value [5]?
**A.** about 50%

**Q.** What about the “Toxicity towards the HeLa cells” value ([5]; 30 μg/ml) of the same compound?
**A.** no evidence of toxicity

**Q.** And the “Uptake into endothelial cells” value ([6]; 5 min)?
**A.** 250 Molecules/cell (×10^−6)

**Q.** What about the “Uptake into endothelial cells” value ([6]; 30 min) of the same compound?
**A.** 400 Molecules/cell (×10^−6)

**Q.** What about the “Uptake into endothelial cells” value ([6]; 60 min) of the same compound?
**A.** 500 Molecules/cell (×10^−6)

**Q.** And the “Uptake into endothelial cells” value ([6]; 120 min)?
**A.** 500 Molecules/cell (×10^−6)

**Q.** What about the “Uptake into endothelial cells” value ([6]; 180 min) of the same compound?
**A.** 600 Molecules/cell (×10^−6)

**Q.** What about the “Entry into the HUVEC relative to Aminosterol 1436” value ([6]; squalamine versus Aminosterol 1436) of the same compound?
**A.** over 2 orders of magnitude
